Source: PMC12035805, “A Water-Soluble Aggregation-Induced Emission Photosensitizer with Intrinsic Antibacterial Activity as an Antiplanktonic and Antibiofilm Therapeutic Agent” (Journal of Medicinal Chemistry, 2025)

Legend:
[1] = Log P, 1-octanol/water partition; format: physicochemical; details: 1-octanol/water (1:1)
Experimental: The log P values of TPA compounds were obtained according to previously reported methods.[66] 1-octanol was first presaturated with water. Equal volume and concentration of TPA-NC-1, TPA-0, and TPA-1 were added to a 1-octanol/water (1:1) mixture and vortexed for 1 min. The mixture was then centrifuged for 5 min at 13,500 rpm. After that, the absorptions of the compound in the 1-octanol and water phases were measured. The concentrations of the compound in both phases were calculated by using the absorption calibration curve of the corresponding compound. Log P = log (concentration of the compound in 1-octanol/concentration of the compound in water).

MRSA (ATCC 43300) = assay: Wound infection mouse model, MRSA biofilm; format: in vivo; details: mice, topical 90 μM, 600 nm 15 min, every 24 h for 4 days (TPA-1 + L)
Experimental: (§1) All in vivo experiments were approved by the Department of Science and Technology of Zhejiang Province (SYXK(Zhejiang)2021-0043). Female BALB/c mice (10–12 weeks old) were kept in 12 h light and 12 h dark cycle with access to free food and water for 7 days before and throughout the experiment. The backs of the mice were shaved and disinfected with iodine. A full-thickness circular wound (7 mm in diameter) was then created at the back of the mice. The mice were allowed to recover for 24 h after surgery to prevent sepsis.[65] Ten μL of 1× 10^8 CFU/mL MRSA (ATCC 43300) or P. aeruginosa (ATCC 27853) in saline was added to the wound. The wound was covered with an adhesive dressing for 24 h of infection. Next, the mice were randomly divided into four groups: (1) 50 μL TPA-1 (90 μM) with 600 nm light irradiation (60 mW/cm^2) for 15 min, (2) 50 μL TPA-1 (90 μM) in dark, (3) 50 μL saline with 600 nm light irradiation (60 mW/cm^2) for 15 min, and (4) 50 μL saline in dark. For light irradiation groups, TPA-1 and saline were incubated on the wound for 10 min before irradiation. The treatment was sustained for 4 days. The wound size and body weight of the mice were recorded every day. On day 6, the mice were euthanatized, and the wound tissue was collected. […] The other half of the tissue was homogenized, and the number of viable bacteria was measured by the plate counting method.

[2] = test system: P. aeruginosa (ATCC 27853); assay: Wound infection mouse model, P. aeruginosa biofilm; format: in vivo; details: mice, topical 90 μM, 600 nm 15 min, every 24 h for 4 days (TPA-1 + L)
Experimental: as §1

C#CCC[n+]1c(/C=C/c2ccc(-c3ccc(N(c4ccc(OCCC[N+](C)(C)C)cc4)c4ccc(OCCC[N+](C)(C)C)cc4)cc3)s2)sc2ccccc21.[Br-].[Br-].[Br-] [TPA-1]
logP [1]: -1.6
MRSA eradicated in infected tissues (MRSA (ATCC 43300)): 96% ± 3%
MRSA log (CFU/mg tissue) reduction (MRSA (ATCC 43300)): 1.4 ± 0.6 log (CFU/mg tissue)
P. aeruginosa eradicated in infected tissues [2]: 96% ± 4%
P. aeruginosa log (CFU/mg tissue) reduction [2]: 1.4 ± 0.4 log (CFU/mg tissue)
